Results as given in patent US4593018A, “Oligopeptide aldehydes useful as specific inhibitors of enterokinase” (National Research Development Corp., priority 1983, dated 1986).
Residues, ends and D or L forms follow the SMILES beside them. No end group written: not given here. *: point of attachment. Boc = CC(C)(C)OC(=O)*

Assays:
Type in all cases: biochemical
Human Enterokinase [1] = target: T1, Human Enterokinase (Homo sapiens, UniProt P98073); experiment: Inhibition of human enterokinase, Gly-(Asp)4-Lys-2-Nap as substrate; conditions: substrate Gly-(Asp)4-Lys-2-Nap; linear regression of 1/v against [I] at three substrate concentrations
T1 sequence (P98073 whole entry): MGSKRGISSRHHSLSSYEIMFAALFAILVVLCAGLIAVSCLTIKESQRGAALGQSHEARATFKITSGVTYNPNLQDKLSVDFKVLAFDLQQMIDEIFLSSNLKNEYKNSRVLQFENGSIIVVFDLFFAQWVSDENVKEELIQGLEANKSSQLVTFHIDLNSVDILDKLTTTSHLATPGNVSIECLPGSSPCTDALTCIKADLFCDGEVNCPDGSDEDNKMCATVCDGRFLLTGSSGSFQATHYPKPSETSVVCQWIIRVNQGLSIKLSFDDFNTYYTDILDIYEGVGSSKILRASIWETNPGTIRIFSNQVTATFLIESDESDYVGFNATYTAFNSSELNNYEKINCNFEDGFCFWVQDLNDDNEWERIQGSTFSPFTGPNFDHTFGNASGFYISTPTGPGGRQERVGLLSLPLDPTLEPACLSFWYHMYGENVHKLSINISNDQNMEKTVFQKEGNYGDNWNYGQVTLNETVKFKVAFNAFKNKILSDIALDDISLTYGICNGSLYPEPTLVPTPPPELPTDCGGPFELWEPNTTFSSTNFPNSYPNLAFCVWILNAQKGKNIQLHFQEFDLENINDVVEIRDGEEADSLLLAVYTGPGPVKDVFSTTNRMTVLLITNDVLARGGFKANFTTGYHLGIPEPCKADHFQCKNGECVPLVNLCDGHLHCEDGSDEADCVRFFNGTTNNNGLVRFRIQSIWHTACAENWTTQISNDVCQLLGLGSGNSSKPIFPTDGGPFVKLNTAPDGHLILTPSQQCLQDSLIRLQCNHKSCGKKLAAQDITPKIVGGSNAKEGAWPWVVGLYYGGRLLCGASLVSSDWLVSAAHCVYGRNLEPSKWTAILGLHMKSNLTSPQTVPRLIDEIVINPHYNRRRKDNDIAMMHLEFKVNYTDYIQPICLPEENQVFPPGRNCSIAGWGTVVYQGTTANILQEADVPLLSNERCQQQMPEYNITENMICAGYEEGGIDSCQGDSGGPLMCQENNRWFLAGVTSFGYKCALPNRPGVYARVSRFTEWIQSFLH
Description: (§1) Biological testing was carried out on the polyaspartyl argininal materials prepared as described above without further purification. […] Inhibition constants Ki for human and pig enterokinase were calculated using α-N-[^3 H] acetyl trypsinogen and Gly-(Asp)4 -Lys-2-Nap as substrates using linear regression analysis of l/v against [I] at three substrate concentrations. Inhibition of trypsin catalysed hydrolysis of both these substrates and Bz-Arg-OEt was expressed as the IC50, the concentration of inhibitor required to reduce trypsin activity by 50%. The results to activation peptides, four peptides of the invention, leupeptin and p-aminobenzamidine are set out in Tables 1 to 3 below.

Human Enterokinase [2] = target: T1, Human Enterokinase; experiment: Inhibition of human enterokinase, α-N-[3H]acetyl trypsinogen as substrate; conditions: substrate α-N-[3H]acetyltrypsinogen
Description: as §1

Pig Enterokinase = Pig Enterokinase (Sus scrofa, UniProt P98074); experiment: Inhibition of pig enterokinase, α-N-[3H]acetyl trypsinogen as substrate; conditions: substrate α-N-[3H]acetyltrypsinogen
Chain of Pig Enterokinase (P98074 52-1034): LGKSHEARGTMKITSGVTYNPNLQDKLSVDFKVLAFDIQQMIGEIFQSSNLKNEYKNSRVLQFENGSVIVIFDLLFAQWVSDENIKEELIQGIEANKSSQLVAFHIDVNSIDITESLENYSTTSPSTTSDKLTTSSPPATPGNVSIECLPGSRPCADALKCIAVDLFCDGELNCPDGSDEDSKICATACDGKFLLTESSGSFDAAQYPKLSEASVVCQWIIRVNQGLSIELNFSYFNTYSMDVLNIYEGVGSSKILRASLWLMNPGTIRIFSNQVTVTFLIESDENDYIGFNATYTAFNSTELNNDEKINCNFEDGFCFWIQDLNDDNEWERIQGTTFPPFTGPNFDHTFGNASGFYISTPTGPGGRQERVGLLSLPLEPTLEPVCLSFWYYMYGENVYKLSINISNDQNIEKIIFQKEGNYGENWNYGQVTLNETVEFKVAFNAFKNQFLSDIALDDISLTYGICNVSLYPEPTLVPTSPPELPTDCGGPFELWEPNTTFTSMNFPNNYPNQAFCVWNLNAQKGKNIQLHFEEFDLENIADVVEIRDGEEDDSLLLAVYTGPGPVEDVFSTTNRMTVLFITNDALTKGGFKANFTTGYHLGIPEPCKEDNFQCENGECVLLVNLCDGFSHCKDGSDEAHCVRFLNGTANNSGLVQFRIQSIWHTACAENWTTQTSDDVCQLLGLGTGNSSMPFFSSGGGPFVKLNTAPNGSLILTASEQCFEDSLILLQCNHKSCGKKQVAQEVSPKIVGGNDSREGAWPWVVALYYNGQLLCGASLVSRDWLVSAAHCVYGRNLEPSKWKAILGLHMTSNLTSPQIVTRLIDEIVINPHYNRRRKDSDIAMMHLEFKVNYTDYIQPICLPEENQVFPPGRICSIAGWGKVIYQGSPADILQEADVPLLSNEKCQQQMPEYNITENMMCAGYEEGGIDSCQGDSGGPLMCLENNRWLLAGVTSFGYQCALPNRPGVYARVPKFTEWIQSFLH
Description: as §1

Row | Compound | Ki (Human Enterokinase [1]) [nM] | Ki (Human Enterokinase [2]) [nM] | Ki (Pig Enterokinase) [nM]
1 | CC(C)(C)OC(=O)N[C@@H](CC(=O)O)C(=O)N[C@@H](CC(=O)O)C(=O)N[C@H](C=O)CCCNC(=N)N [Boc(Asp)2 Argal, Boc--(Asp)2 --Argininal] (Boc-Asp-Asp-Arg-aldehyde) | 200 ± 50 | 10 ± 5 | 50 ± 10
2 | CC(C)(C)OC(=O)N[C@@H](CC(=O)O)C(=O)N[C@@H](CC(=O)O)C(=O)N[C@@H](CC(=O)O)C(=O)N[C@H](C=O)CCCNC(=N)N [Boc(Asp)3 Argal, Boc--(Asp)3 --Argininal] (Boc-DDDR-aldehyde) | 100 | 20 ± 5 | 35 ± 5
3 | CC(C)(C)OC(=O)N[C@@H](CC(=O)O)C(=O)N[C@@H](CC(=O)O)C(=O)N[C@@H](CC(=O)O)C(=O)N[C@@H](CC(=O)O)C(=O)N[C@H](C=O)CCCNC(=N)N [Boc(Asp)4 Argal, Boc--(Asp)4 --Argininal] (Boc-DDDDR-aldehyde) | 55 ± 5 | 10 ± 5 | 20 ± 10
4 | CC(=O)N[C@@H](CC(C)C)C(=O)N[C@@H](CC(C)C)C(=O)N[C@H](C=O)CCCNC(=N)N [Leupeptin, reference compound] | 1000 |  | ≥ 1000
5 | N=C(N)c1ccc(N)cc1 [p-aminobenzamidine, reference compound] |  | ≥ 50000 | ≥ 50000
6 | APFDDDDK [Ala--Pro--Phe--(Asp)4 Lys, reference compound] | 750000 |  | 
7 | DDDDK [(Asp)4 Lys, reference compound] | 100000 |  | 
